Several values for one entry are separate records, joined by “and”; a condition that tells them apart may be missing. Equal values may be shown once.
Assay: Body weight and innervated muscle weight under rapamycin treatment (Table 2)
Format: in vivo, mouse
Set-up: key to Body weight before / Body weight after: body weight in g; Gastroc weight, innervated muscle: unit not given here
Conditions: for Gastroc weight, innervated muscle / TA weight, innervated muscle / sol (soleus) weight, innervated muscle / Body weight after / Body weight before: individual mice; for TA weight, innervated muscle, MEAN / sol (soleus) weight, innervated muscle, MEAN / Body weight after, MEAN / Body weight before, MEAN: mean of 6 mice; for Body weight after, MEAN / Body weight before, MEAN: in g
Experimental: Rapamycin (LC Laboratories; Woburn, Mass.) was initially dissolved in 100% ethanol, stored at −20° C., and further diluted in an aqueous solution of 5.2% Tween 80 and 5.2% PEG 400 (final ethanol concentration, 2%) immediately before use (Wendel et al., 2004). Denervated NSA mice (male, 40 g) were injected immediately with rapamycin i.p. at 1.5 mg/kg, or 6 mg/kg body weight, every other day. Control mice were injected with vehicle with the same amount of ethanol solvent with rapamycin group (6 mg·kg). Muscle samples were collected 15 days later. Muscle wet weight was recorded immediately. For immunostaining, muscles were frozen in OCT in dry ice-cold isopentane. For RNA and protein extraction, muscles were quickly frozen in liquid nitrogen. Student t-test was used to evaluate the statistical significance. P<0.05 was considered as statistically significant. Each of these experiments were performed such that there were 3 to 6 separate experimental mice (for each genotype, dose, and time-point) and 3-6 separate control mice per experiment.

[1] = Inn + 1.5 (rapamycin 1.5 mg/kg i.p. every other day, 15 days), in g (unit assumed)
[2] = Inn + 1.5 (rapamycin 1.5 mg/kg), in g (unit assumed)
[3] = Inn + 6 (rapamycin 6 mg/kg i.p. every other day, 15 days)
[4] = Inn + 6 (rapamycin 6 mg/kg), in g (unit assumed)
[5] = rapamycin at the doses used (1.5 or 6 mg/kg i.p. every other day)

In the case of `CO[C@H]1C[C@@H]2CC[C@@H](C)[C@@](O)(O2)C(=O)C(=O)N2CCCC[C@H]2C(=O)O[C@H]([C@H](C)C[C@@H]2CC[C@@H](O)[C@H](OC)C2)CC(=O)[C@H](C)/C=C(\C)[C@@H](O)[C@@H](OC)C(=O)[C@H](C)C[C@H](C)/C=C/C=C/C=C/1C` [rapamycin, Rapamycin], the “Gastroc weight, innervated muscle” value (Inn + 1.5 (rapamycin 1.5 mg/kg i.p. every other day, 15 days)) is reported as 0.1984 and 0.2043 and 0.2062 and 167.3 and 196.7, the “TA weight, innervated muscle” value [1] is reported as 0.0719 and 0.0697 and 0.068 and 0.0898 and 0.0795 and 0.0597 and the “sol (soleus) weight, innervated muscle” value [1] is reported as 0.0114 and 0.0095 and 0.0099 and 0.0106 and 0.0102 and 0.0075. The “TA weight, innervated muscle, MEAN” value [2] was 0.0731, the “sol (soleus) weight, innervated muscle, MEAN” value [2] was 0.00985 and the “Gastroc weight, innervated muscle” value [3] was 0.2084 and 0.2168 and 0.1798 and 217.7 and 230.5. The “sol (soleus) weight, innervated muscle” value [3] was 0.0102 and 0.0116 and 0.0106 (3×) and 0.0115, the “TA weight, innervated muscle” value (Inn + 6 (rapamycin 6 mg/kg i.p. every other day, 15 days), in g (unit assumed)) was 0.0686 and 0.0751 and 0.0645 and 0.078 and 0.0713 and 0.0759 and the “TA weight, innervated muscle, MEAN” value [4] was 0.07223. For the same molecule, the “sol (soleus) weight, innervated muscle, MEAN” value [4] was 0.01085, the Body weight after (Rapa − 1.5, after) was 45 and 46 and 42 (2×) and 40 and 39 and the “Body weight after, MEAN” value (Rapa − 1.5, after) was 42.33. The Body weight before (Rapa − 1.5, before) was 41 g (2×) and 46 g and 44 g and 42 g (2×), the “Body weight before, MEAN” value (Rapa − 1.5, before) was 42.67 and the Body weight after (Rapa − 6, after, in g (unit assumed)) was 46 and 38 and 41 and 42 and 40 and 39. For the same molecule, the “Body weight after, MEAN” value (Rapa − 6, after) was 41, the Body weight before (Rapa − 6, before, in g (unit assumed)) was 39 and 42 and 55 and 43 and 41 and 44 and the “Body weight before, MEAN” value (Rapa − 6, before) was 44. For the same molecule, the “influence on body weight” value [5] was “did not influence”, the “influence on innervated muscle weight” value [5] was “does not change” and the “influence on innervated muscle weight” value (rapamycin at the doses used (1.5 or 6 mg/kg i.p. every other day), listed as Rapamycin) was “did not influence”.
